{
  "source": "paper PMC4598023",
  "about": "(PLoS ONE, 2015)",
  "molecules": {"B1": {"name": "murine amylin (peptide, UniProt P12968 38-74, looked up)", "peptide": "KCNTATCATQRLANFLVRSSNNLGPVLPPTNVGSNTY-NH2", "modifications": "disulfide 2-7; also: FITC (<1 mol/mol, position not given here) on labelled copy only", "notes": "murine amylin (islet amyloid polypeptide), the 37-residue hormone; numbers count on: the mature protein; The unlabelled ligand and the FITC-labelled copy are written as one molecule; also called free murine amylin; non-conjugated amylin; source: synthetic peptide, bought: Genemed Synthesis Inc"}},
  "key": {"[1]": {"details": "cited from earlier work", "text": "One additional limitation for the use of the currently available amylinomimetic compound is the lack of ability for mimicking the basal levels of amylin in the fasting state. […] (Fig 6A) and thus a sustained release of amylin of an increasing in its t1/2 would serve as potential strategies for the restoration of basal hormone levels. […] Additionall ..."}, "[2]": {"experiment": "Pharmacokinetics after subcutaneous administration in mice (serum amylin by ELISA)", "format": "in vivo", "details": "Swiss male mice, s.c., 400 μg peptide/kg; for level at time molar at 5 s / level at time molar at 0.5 min / level at time molar at 1 min / level at time molar at 2 min / level at time molar at 4 min / level at time molar at 0.8 h: male, Swiss, 400 ug peptide/kg, ELISA, read-out: amylin concentration (serum); for level at time molar at 5 s: Time 0.0833 (head: min); for level at time molar at 0.5 min: Time 0.5 (head: min); for level at time molar at 1 min: Time 1 (head: min); for level at time molar at 2 min: Time 2 (head: min); for level at time molar at 4 min: Time 4 (head: min); for level at time molar at 0.8 h: Time 48 (head: min)", "protocol": "Swiss male mice (8 weeks old; n = 4 per group) were administrated of free or monoPEGylated human amylin (both at 400 μg peptide / kg body weight) by subcutaneous route. At the indicated time interval, blood was collected with glass capillary tubes from retro-orbital access and the serum was separated. The concentration of amylin in the plasma was evaluated by ELISA (Merck Millipore, cat # EZHA-52K) by following the manufacturer protocol. The sensitivity of the ELISA assay kit for the monoPEGylated human amylin product was similar to the non-conjugated human amylin as inferred from control analytical curves. In case needed, the mice plasma samples were diluted accordingly in order to achieve the desired concentration range of the ELISA kit. Glucagon was evaluated from the same serum samples, by using an ELISA kit (Merck Millipore, Cat # EZGLU-30K) according to instructions of the manufacturer.\nContinuous lines are best fitting of single-exponential decay function to data. b) Modulation of glucagon. […] The raw data can be found in S2 File."}, "Trypsin": {"tested_on": "Trypsin", "experiment": "trypsin in 25 mM ammonium bicarbonate, after reduction with dithiothreitol and blockage with iodoacetamide", "details": "37°C, up to 18 h"}, "[3]": {"target": "T1, human receptor-activity modifying protein 3 Extracellular Topological Domain (human, UniProt O60896 28-117, fluorescein (FITC, below 1 mol per mol protein, position not stated))", "T1 construct": "human receptor-activity modifying protein 3, extracellular topological domain, residues 28-117 of O60896; pET28b construct with a thrombin cleavage site after the N-terminal histidine tag; no cleavage is told; also called RAMP3-ETD; RAMP3", "T1 sequence (looked up)": "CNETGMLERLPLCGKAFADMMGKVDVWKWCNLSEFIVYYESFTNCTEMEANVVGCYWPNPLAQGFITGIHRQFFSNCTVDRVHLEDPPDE", "experiment": "fluorescence polarisation; fluorescence anisotropy of the FITC-labelled protein (50 nM murine amylin, CTR1 or RAMP3) against total concentration of unlabelled ligand; PBS pH 7.4, 25°C; ex 480 nm, em 520 nm, cut-off filter 515 nm", "details": "both partners purified"}, "murine amylin": {"target": "B1", "experiment": "fluorescence polarisation; fluorescence anisotropy of the FITC-labelled protein (50 nM murine amylin, CTR1 or RAMP3) against total concentration of unlabelled ligand; PBS pH 7.4, 25°C; ex 480 nm, em 520 nm, cut-off filter 515 nm", "details": "both partners purified"}, "[4]": {"details": "fit of serum concentration vs time"}, "[5]": {"details": "mouse, in vivo, sc, replicate column 1"}, "[6]": {"details": "mouse, in vivo, sc, replicate column 2"}},
  "note": "Like-named read-outs stand apart in the source and are kept apart here. Bridges are numbered along the chain shown (N, C = ends). Where no end group is shown, it is not given here.",
  "data": [
    {"molecule": "CC[C@H](C)[C@H](NC(=O)[C@H](C)NC(=O)CNC(=O)[C@H](Cc1ccccc1)NC(=O)[C@H](CC(N)=O)NC(=O)[C@H](CC(N)=O)NC(=O)[C@H](CO)NC(=O)[C@H](CO)NC(=O)[C@H](Cc1c[nH]cn1)NC(=O)[C@@H](NC(=O)[C@H](CC(C)C)NC(=O)[C@H](Cc1ccccc1)NC(=O)[C@H](CC(N)=O)NC(=O)[C@H](C)NC(=O)[C@H](CC(C)C)NC(=O)[C@H](CCCNC(=N)N)NC(=O)[C@H](CCC(N)=O)NC(=O)[C@@H](NC(=O)[C@H](C)NC(=O)[C@@H]1CSSC[C@H](NC(=O)[C@@H](N)CCCCN)C(=O)N[C@@H](CC(N)=O)C(=O)N[C@@H]([C@@H](C)O)C(=O)N[C@@H](C)C(=O)N[C@@H]([C@@H](C)O)C(=O)N1)[C@@H](C)O)C(C)C)C(=O)N[C@@H](CC(C)C)C(=O)N[C@@H](CO)C(=O)N[C@@H](CO)C(=O)N[C@H](C(=O)N[C@@H](CC(N)=O)C(=O)N[C@H](C(=O)NCC(=O)N[C@@H](CO)C(=O)N[C@@H](CC(N)=O)C(=O)N[C@H](C(=O)N[C@@H](Cc1ccc(O)cc1)C(N)=O)[C@@H](C)O)C(C)C)[C@@H](C)O", "note": "[human amylin]", "values": [
      {"measurement": "half-life (t1/2)", "setting": "[1]", "value": "15 to 20", "unit": "min"},
      {"measurement": "Half Life (One phase decay, best-fit value)", "setting": "[2]; (unit not given)", "value": 0.3893},
      {"measurement": "Tau (One phase decay, best-fit value)", "setting": "[2]; (unit not given)", "value": 0.5616},
      {"measurement": "K (One phase decay, best-fit value)", "setting": "[2]; [4]", "value": 1.781},
      {"measurement": "Plateau (One phase decay, best-fit value)", "setting": "[2]; [4]", "value": 184.9},
      {"measurement": "Span (One phase decay, best-fit value)", "setting": "[2]; [4]", "value": 6701},
      {"measurement": "Y0 (One phase decay, best-fit value)", "setting": "[2]; [4]", "value": 6886},
      {"measurement": "level at time molar at 5 s", "setting": "[2]; [5]", "value": 6630, "unit": "nM"},
      {"measurement": "level at time molar at 5 s", "setting": "[2]; [6]", "value": 6710, "unit": "nM"},
      {"measurement": "level at time molar at 0.5 min", "setting": "[2]; [5]", "value": 4690, "unit": "nM"},
      {"measurement": "level at time molar at 0.5 min", "setting": "[2]; [6]", "value": 659, "unit": "nM"},
      {"measurement": "level at time molar at 1 min", "setting": "[2]; [5]", "value": 2720, "unit": "nM"},
      {"measurement": "level at time molar at 1 min", "setting": "[2]; [6]", "value": 423, "unit": "nM"},
      {"measurement": "level at time molar at 2 min", "setting": "[2]; [5]", "value": 593, "unit": "nM"},
      {"measurement": "level at time molar at 2 min", "setting": "[2]; [6]", "value": 324, "unit": "nM"},
      {"measurement": "level at time molar at 4 min", "setting": "[2]; [5]", "value": 198, "unit": "nM"},
      {"measurement": "level at time molar at 4 min", "setting": "[2]; [6]", "value": 207, "unit": "nM"},
      {"measurement": "level at time molar at 0.8 h", "setting": "[2]; [5]", "value": 22.7, "unit": "nM"},
      {"measurement": "level at time molar at 0.8 h", "setting": "[2]; [6]", "value": 18.2, "unit": "nM"},
      {"measurement": "half-life", "setting": "[2]; mouse, in vivo, sc, serum amylin by ELISA, single-exponential decay fit, n = 4 per group", "value": 23, "unit": "min"}
    ]},
    {"molecule": "KCNTATCATQRLANFLVHSSNNFGAILSSTNVGSNTY-CONH2", "values": [
      {"measurement": "cleaved bond", "setting": "Trypsin", "value": "Arg11-L12"}
    ]},
    {"molecule": "B1", "values": [
      {"measurement": "binding result", "setting": "[3]", "value": "binds"}
    ]},
    {"molecule": "KCNTATCATQRLANFLVHSSNNFGAILSSTNVGSNTY-NH2 (peptide, UniProt P10997 34-70, looked up, disulfide 2-7; also: one methoxy-PEG 5 kDa (mPEG succinimidyl carbonate) at an amino group of Lys1, N-terminal region, human amylin (islet amyloid polypeptide, IAPP), the 37-residue hormone, amino acids 1 to 37; numbers count on: the mature protein; The PEG site was placed by trypsin digestion and MALDI-ToF-MS: fragment 12-37 is unmodified; also called PEGylated amylin; hAmylin-PEG)", "note": "[monoPEGylated human amylin]", "values": [
      {"measurement": "binding result", "setting": "murine amylin", "value": "binds"},
      {"measurement": "binding result", "setting": "[3]", "value": "binds"}
    ]}
  ]
}
